In US20170247459A1, “COMBINATION THERAPY OF ANTIBODIES AGAINST HUMAN CSF-1R AND USES THEREOF” (HOFFMANN-LA ROCHE INC., priority 2012, published 2017):

What was measured:
MC38 colon carcinoma = assay: Tumor growth inhibition with chemotherapy or cancer immunotherapy combinations in subcutaneous syngeneic MC38 colon carcinoma model; format: in vivo, C57BL/6N mice; conditions: for TCR (day 21) / TGI (day 21): compared to control antibody; for TGI (day 21): antibody 30 mg/kg i.p. weekly; for Median time to progression TV > 700 mm3: mouse, in vivo
Description: Inhibition of Tumor Growth Under Treatment with Anti-CSF-1R Monoclonal Antibody in Combination with Chemotherapy or Cancer Immunotherapy in Subcutaneous Syngeneic MC38 Colon Carcinoma Models

primary tumor growth = assay: Docetaxel combined with anti-mouse CSF-1R antibody (separate experiment); format: in vivo
Protocol: Docetaxel was administered 3 times weekly as 1 cycle followed by 3 weeks drug holiday.

| Compound | TCR (day 21) (MC38 colon carcinoma) | TGI (day 21) (MC38 colon carcinoma) | Median time to progression TV > 700 mm3 (MC38 colon carcinoma) | npTCR (primary tumor growth; after 2 cycles of docetaxel) | TGI (primary tumor growth; after 2 cycles of docetaxel, docetaxel 3 mg/kg i.v., antibody 30 mg/kg i.p. weekly) | median survival time (primary tumor growth; in vivo) | TGI (day 21) (MC38 colon carcinoma; listed as IL2) |
| --- | --- | --- | --- | --- | --- | --- | --- |
| O=C1[O][Pt]2([NH][C@@H]3CCCC[C@H]3[NH]2)[O]C1=O [Oxaliplatin] | 0.54 | 46% | 21 | – | – | – | – |
| CC(=O)O[C@@]12CO[C@@H]1C[C@H](O)[C@@]1(C)C(=O)[C@H](O)C3=C(C)[C@@H](OC(=O)[C@H](O)[C@@H](NC(=O)OC(C)(C)C)c4ccccc4)C[C@@](O)([C@@H](OC(=O)c4ccccc4)[C@H]21)C3(C)C [docetaxel] | – | – | – | 0.55 | 75% | 154 days | – |
| Proleukin: IL-2 (Proleukin, Novartis) | 0.53 | 47% | 21 | – | – | – | 47% |
